Source: patent US8952024B2, “Herbicidal pyrimidone derivatives” (E I du Pont de Nemours and Company, priority 2009, dated 2015)

Legend:
Format in all cases: in vivo
[1] = tested on: blackgrass (Alopecurus myosuroides); assay: Test B pre-/postemergence plant response; details: for Blackgrass plant response rating (0 to 100 scale): 62 g ai/ha, 0 is no effect, 13 to 15 days
Summary of the method: (§1)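 Steps: sow seed in loam–sand soil and spray preemergence, or grow plants in peat-based medium to 1–4 leaves (2–18 cm) and spray postemergence; formulation is non-phytotoxic solvent plus surfactant; hold in greenhouse 13–15 days; score visually vs controls, 0 = no effect, 100 = complete control.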

[2] = tested on: lambsquarters (Chenopodium album); assay: Test B pre-/postemergence plant response; details: for Lambsquarters plant response rating (0 to 100 scale): 62 g ai/ha, 0 is no effect, 13 to 15 days
Summary of the method: as §1

[3] = tested on: green foxtail (Setaria viridis); assay: Test B pre-/postemergence plant response; details: for Foxtail, Green plant response rating (0 to 100 scale): 62 g ai/ha, 0 is no effect, 13 to 15 days
Summary of the method: as §1

[4] = tested on: goosegrass (Eleusine indica); assay: Test B pre-/postemergence plant response; details: for Goosegrass plant response rating (0 to 100 scale): 62 g ai/ha, 0 is no effect, 13 to 15 days
Summary of the method: as §1

[5] = tested on: Surinam grass (Brachiaria decumbens); assay: Test B pre-/postemergence plant response; details: for Plant response rating, Surinam Grass: Postemergence, scale 0 to 100 (0 no effect, 100 complete control)
Summary of the method: as §1

[6] = tested on: giant foxtail (Setaria faberii); assay: Test B pre-/postemergence plant response; details: for Foxtail, Giant plant response rating (0 to 100 scale): 62 g ai/ha, 0 is no effect, 13 to 15 days
Summary of the method: as §1

[7] = tested on: johnsongrass (Sorghum halepense); assay: Test B pre-/postemergence plant response; details: for Johnsongrass plant response rating (0 to 100 scale): 62 g ai/ha, 0 is no effect, 13 to 15 days
Summary of the method: as §1

corn (Zea mays) = assay: Test B pre-/postemergence plant response; details: for Corn plant response rating (0 to 100 scale): 62 g ai/ha, 0 is no effect, 13 to 15 days
Summary of the method: as §1

wild oat (Avena fatua) = assay: Test B pre-/postemergence plant response; details: for Oat, Wild plant response rating (0 to 100 scale): 62 g ai/ha, 0 is no effect, 13 to 15 days
Summary of the method: as §1

[8] = tested on: pigweed (Amaranthus retroflexus); assay: Test B pre-/postemergence plant response; details: for Pigweed plant response rating (0 to 100 scale): 62 g ai/ha, 0 is no effect, 13 to 15 days
Summary of the method: as §1

[9] = tested on: ragweed (common ragweed, Ambrosia elatior); assay: Test B pre-/postemergence plant response; details: for Ragweed plant response rating (0 to 100 scale): 62 g ai/ha, postemergence, 0 is no effect, 100 is complete control, 13 to 15 days; for Plant response rating, Ragweed: Postemergence, scale 0 to 100 (0 no effect, 100 complete control)
Summary of the method: as §1

[10] = tested on: umbrella sedge (Cyperus difformis); assay: Test B flooded paddy test; details: for Plant response rating, Flood, Sedge, Umbrella: 250 g ai/ha, flooded paddy test, visual rating on 0 to 100 scale (0 no effect, 100 complete control) after 13 to 15 days; for Plant response rating, Sedge, Umbrella: Flood (flooded paddy test), 62 g ai/ha, scale of 0 to 100 where 0 is no effect and 100 is complete control, 13 to 15 days
Summary of the method: (§2)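 Ratings are visual, 0–100 (100 = complete control), taken versus untreated controls 13 to 15 days after treatment in the greenhouse. Compound went straight into paddy water held 3 cm above soil, applied to 2-leaf-stage plants of four species.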

rice (Oryza sativa) = assay: Test B flooded paddy test; details: for Plant response rating, Flood, Rice: 250 g ai/ha, flooded paddy test, visual rating on 0 to 100 scale (0 no effect, 100 complete control) after 13 to 15 days; for Plant response rating, Rice: Flood (flooded paddy test), 62 g ai/ha, scale of 0 to 100 where 0 is no effect and 100 is complete control, 13 to 15 days
Summary of the method: as §2

[11] = 31 g ai/ha, postemergence, scale 0 to 100, 0 is no effect, 100 is complete control
[12] = postemergence, 100 is complete control
[13] = Postemergence, 125 g ai/ha, scale 0 to 100 (0 no effect, 100 complete control)
[14] = Postemergence, 250 g ai/ha, scale 0 to 100 (0 no effect, 100 complete control)

With `COCCn1c(-c2cccc(C)c2)ncc(C(=O)C2=C(O)CCCC2=O)c1=O` [Compound 117] the “Plant response rating, Blackgrass” value [1, 11] was 0, the “Blackgrass plant response rating (0 to 100 scale)” value [1, 12] was 10 and the “Plant response rating, Blackgrass” value [1, 13] was 40. The “Plant response rating, Blackgrass” value [1, 14] was 40, the “Plant response rating, Lambsquarters” value [2, 11] was 95 and the “Lambsquarters plant response rating (0 to 100 scale)” value [2, 12] was 98. The “Plant response rating, Lambsquarters” value [2, 13] was 100, the “Plant response rating, Lambsquarters” value [2, 14] was 100 and the “Plant response rating, Foxtail, Green” value [3, 11] was 50. The “Foxtail, Green plant response rating (0 to 100 scale)” value [3, 12] was 70, the “Plant response rating, Foxtail, Green” value [3, 13] was 80 and the “Plant response rating, Foxtail, Green” value [3, 14] was 95. The “Plant response rating, Goosegrass” value [4, 11] was 45, the “Goosegrass plant response rating (0 to 100 scale)” value [4, 12] was 75 and the “Plant response rating, Goosegrass” value [4, 13] was 75. For the same compound, the “Plant response rating, Goosegrass” value [4, 14] was 85, the “Surinam Grass plant response rating (0 to 100 scale)” value ([5]; 62 g ai/ha, postemergence, 0 is no effect, 100 is complete control, 13 to 15 days) was 75 and the “Plant response rating, Surinam Grass” value ([5]; 250 g ai/ha) was 85. For the same compound, the “Plant response rating, Foxtail, Giant” value [6, 11] was 65, the “Foxtail, Giant plant response rating (0 to 100 scale)” value [6, 12] was 75 and the “Plant response rating, Foxtail, Giant” value [6, 13] was 80. The “Plant response rating, Foxtail, Giant” value [6, 14] was 95, the “Plant response rating, Johnsongrass” value [7, 11] was 5 and the “Johnsongrass plant response rating (0 to 100 scale)” value [7, 12] was 20. For the same compound, the “Plant response rating, Johnsongrass” value [7, 14] was 25, the “Plant response rating, Corn” value (corn (Zea mays); [11]) was 10 and the “Corn plant response rating (0 to 100 scale)” value (corn (Zea mays); [12]) was 15. For the same compound, the “Plant response rating, Corn” value (corn (Zea mays); [13]) was 25, the “Plant response rating, Corn” value (corn (Zea mays); [14]) was 25 and the “Plant response rating, Oat, Wild” value (wild oat (Avena fatua); [11]) was 5. For the same compound, the “Oat, Wild plant response rating (0 to 100 scale)” value (wild oat (Avena fatua); [12]) was 10, the “Plant response rating, Oat, Wild” value (wild oat (Avena fatua); [13]) was 30 and the “Plant response rating, Oat, Wild” value (wild oat (Avena fatua); [14]) was 35. The “Plant response rating, Pigweed” value [8, 11] was 95, the “Pigweed plant response rating (0 to 100 scale)” value [8, 12] was 98 and the “Plant response rating, Pigweed” value [8, 14] was 100. The “Ragweed plant response rating (0 to 100 scale)” value [9] was 75, the “Plant response rating, Ragweed” value ([9]; 125 g ai/ha) was 90 and the “Plant response rating, Ragweed” value ([9]; 250 g ai/ha) was 98. For the same compound, the “Plant response rating, Flood, Sedge, Umbrella” value [10] was 95, the “Plant response rating, Sedge, Umbrella” value [10] was 95 and the “Plant response rating, Flood, Rice” value (rice (Oryza sativa)) was 15. The “Plant response rating, Rice” value (rice (Oryza sativa)) was 0.

`COCCCn1c(-c2cccc(C)c2)ncc(C(=O)C2=C(O)CCCC2=O)c1=O` [Compound 118, 5-[(2-hydroxy-6-oxo-1-cyclohexane-1-yl)carbonyl]-3-(3-methoxypropyl)-2-(3-methylphenyl)-4(3H)-pyrimidinone] was tested, and the “Plant response rating, Blackgrass” value [1, 11] was 5, the “Blackgrass plant response rating (0 to 100 scale)” value [1, 12] was 10 and the “Plant response rating, Blackgrass” value [1, 13] was 35. The “Plant response rating, Blackgrass” value [1, 14] was 40, the “Plant response rating, Lambsquarters” value [2, 11] was 85 and the “Lambsquarters plant response rating (0 to 100 scale)” value [2, 12] was 98. The “Plant response rating, Lambsquarters” value [2, 13] was 100, the “Plant response rating, Lambsquarters” value [2, 14] was 100 and the “Plant response rating, Foxtail, Green” value [3, 11] was 50. For the same compound, the “Foxtail, Green plant response rating (0 to 100 scale)” value [3, 12] was 85, the “Plant response rating, Foxtail, Green” value [3, 13] was 95 and the “Plant response rating, Foxtail, Green” value [3, 14] was 95. The “Plant response rating, Goosegrass” value [4, 11] was 55, the “Goosegrass plant response rating (0 to 100 scale)” value [4, 12] was 65 and the “Plant response rating, Goosegrass” value [4, 13] was 80. For the same compound, the “Plant response rating, Goosegrass” value [4, 14] was 90, the “Plant response rating, Surinam Grass” value ([5]; 125 g ai/ha) was 75 and the “Plant response rating, Surinam Grass” value ([5]; 250 g ai/ha) was 90. The “Plant response rating, Foxtail, Giant” value [6, 11] was 75, the “Foxtail, Giant plant response rating (0 to 100 scale)” value [6, 12] was 80 and the “Plant response rating, Foxtail, Giant” value [6, 13] was 85. For the same compound, the “Plant response rating, Foxtail, Giant” value [6, 14] was 95, the “Plant response rating, Johnsongrass” value [7, 11] was 10 and the “Johnsongrass plant response rating (0 to 100 scale)” value [7, 12] was 10. For the same compound, the “Plant response rating, Johnsongrass” value [7, 13] was 20, the “Plant response rating, Johnsongrass” value [7, 14] was 35 and the “Plant response rating, Corn” value (corn (Zea mays); [11]) was 0. The “Corn plant response rating (0 to 100 scale)” value (corn (Zea mays); [12]) was 0, the “Plant response rating, Corn” value (corn (Zea mays); [13]) was 20 and the “Plant response rating, Corn” value (corn (Zea mays); [14]) was 25. The “Plant response rating, Oat, Wild” value (wild oat (Avena fatua); [11]) was 5, the “Oat, Wild plant response rating (0 to 100 scale)” value (wild oat (Avena fatua); [12]) was 5 and the “Plant response rating, Oat, Wild” value (wild oat (Avena fatua); [13]) was 10. For the same compound, the “Plant response rating, Oat, Wild” value (wild oat (Avena fatua); [14]) was 40, the “Plant response rating, Pigweed” value [8, 11] was 85 and the “Pigweed plant response rating (0 to 100 scale)” value [8, 12] was 100. For the same compound, the “Plant response rating, Pigweed” value [8, 13] was 100, the “Plant response rating, Pigweed” value [8, 14] was 100 and the “Ragweed plant response rating (0 to 100 scale)” value [9] was 85. The “Plant response rating, Ragweed” value ([9]; 125 g ai/ha) was 95, the “Plant response rating, Ragweed” value ([9]; 250 g ai/ha) was 98 and the “Plant response rating, Flood, Sedge, Umbrella” value [10] was 85. For the same compound, the “Plant response rating, Sedge, Umbrella” value [10] was 70, the “Plant response rating, Flood, Rice” value (rice (Oryza sativa)) was 15 and the “Plant response rating, Rice” value (rice (Oryza sativa)) was 0.
